Reference: patent US10273278B2, “Epitope recognized by anti-interferon gamma autoantibodies in patients with disseminated mycobacterial infections and the application therefor” (priority 2015, dated 2019)
Ends that are not written are not given here.

Experiments:
[1] = system: THP1 cells; test: p-STAT1 in THP1 cells pre-incubated with sera of immunized rats and treated with IFNr; assay type: cell-based; conditions: 50% sera
[2] = system: WKY/NcrlNarl rats; test: Immunization of rats with Noc2 or IFNr peptide conjugated with OVA; assay type: in vivo, rat; conditions: 0.25 mg peptide-OVA, booster every two weeks
Experimental: The inventor immunized WKY/NcrlNarl rats with 0.25 mg Noc2 or IFNr[…] peptide (Noc2: […] (SEQ NO: 31); IFNr: […] (SEQ NO: 32)) conjugated with ovalbumin (OVA) and gave a booster dose every two weeks after the initial injection (day 0). After 70 days, the inventor checked the antibody production level by dot blot or ELISA at each injection. All rats were sacrificed ten days after the tenth injection (day 136) and whole blood was collected. After collection of the whole blood, the blood was allowed to clot by leaving it undisturbed at room temperature 15 minutes. Clots were removed by centrifuging at 1500 g for 10 minutes in a refrigerated centrifuge. Sera were aliquoted and stored at −20° C. for further use.
Blood sera from pre-immunized rats (n=6), Noc2 peptide-immunized rats (n=4) and Peptide 6-immunized rats (n=2) were mapped to control peptide, Peptide 6 and Noc2 peptide from Aspergillus terreus or Aspergillus fumigatus. This is represented as the mean optical density (OD) at 405 nm.

[3] = target: T1, human IFNr (Homo sapiens, UniProt P01579); test: Blocking of hIFNr detection by sera of immunized rats; assay type: binding; conditions: sera incubated with 200 pg/mL of human IFNr
T1 sequence (P01579 24-166): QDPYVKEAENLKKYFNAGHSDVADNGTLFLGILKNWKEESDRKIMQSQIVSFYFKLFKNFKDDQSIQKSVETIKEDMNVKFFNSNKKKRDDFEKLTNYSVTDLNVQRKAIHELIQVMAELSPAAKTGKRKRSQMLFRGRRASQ
Experimental: Blood plasma from patients and donors was serially diluted (10^−1 to 10^−6) and incubated with recombinant human IFNr at a final concentration of 200 pg/mL for 1 hour at 37° C. The IFNr level was measured with a human IFNr ELISA kit from BD Biosciences according to the manufacturer's recommendations. All experiments were performed in duplicate.
However, blood sera from Noc2 peptide-immunized rats (n=4) and Peptide 6-immunized rats (n=2) at dilutions of up to 1/10^2 inhibited the detection of hIFNr.

[4] = system: anti-IFNr AutoAbs; test: Protein mapping ELISA of recombinant IFNr proteins with blood plasma; assay type: binding, human; conditions: patients' blood plasma, OD 405 nm
[5] = system: THP1 cells; test: HLA-DR expression in THP1 cells; assay type: cell-based; conditions: in the presence of anti-IFNr AutoAbs
[6] = system: IL-12p40 in PBMCs; assay type: cell-based, human
[7] = system: anti-IFNr AutoAbs; test: Immunoblotting (Western blot / dot blot) with patient or control plasma; assay type: binding, human; conditions: plasma from healthy donors
Experimental: Recombinant IFNr[…] (R&D Systems) and different truncated forms of recombinant IFNr[…] were subjected to SDS-PAGE using a 10% gel under reducing conditions at 120 V for 2 hours. The proteins were transferred to a PVDF membrane (Invitrogen Life Technologies) at 250 mA for 2 hours. The membrane was blocked in 5% human normal serum albumin (Aventis) in TBS with 0.1% Tween 20 overnight at 4° C. The membrane was incubated with a 1/100 dilution of patient or control blood plasma for 3 hours at room temperature. After being washed three times, the membrane was incubated in a 1/10,000 dilution of mouse anti-human IgG conjugated with horseradish peroxidase (Jackson ImmunoResearch Laboratories) for 1 hour at room temperature. After being washed three times, the membrane was developed with ECL (Merck Millipore).
Plasma from 3 healthy donors had no response to either IFNr1-131 or EE-IFNr.

[8] = system: HLA-DR expression in PBMCs; test: HLA-DR expression in PBMCs (CD14+ gated); assay type: cell-based, human; conditions: IFNr AutoAbs patients' PBMCs pre-incubated with 10% autologous plasma
Experimental: A total of 10^6 PBMCs in 200 μL RPMI-1640 with 10% FBS and 1% penicillin/streptomycin was used. Cells were then stimulated with 500 IU IFNr, IFNr_1-131 or EE-IFNr⋅ in 160 μL RPMI-1640 pre-incubated with 40 μL of normal blood plasma or patient blood plasma for 10 min at room temperature. After 24 hours of stimulation in a 37° C. incubator, monocytes were identified by FITC-CD14 (BD Pharmingen) surface staining. Next, PE-HLA-DR antibody (BD Pharmingen) was added followed by 30 minutes of incubation on ice in the dark. Cells were again washed with 2 ml of PBS before resuspension in 500 μl of PBS. Data were collected with a FACSVerse flow cytometer (BD Biosciences) and analyzed using FACSuite software (BD Biosciences).
After being gated on the CD14^+, HLA-DR expression levels were determined by flow cytometry with the HLA-DR monoclonal antibody. Representative histograms (FIG. 4d(1)-FIG. 4d(2)) and MFI (median fluorescence intensity) (FIG. 4e) are shown.

[9] = system: IL-12p40 in whole blood; assay type: cell-based, human
[10] = system: p-STAT1 in PBMCs; test: p-STAT1 intracellular stain in PBMCs (CD14+ gated); assay type: cell-based, human
Experimental: A total of 10^6 PBMCs in 200 μL RPMI-1640 with 10% FBS and 1% penicillin/streptomycin was used. […] After 30 minutes of stimulation in a 37° C. incubator, monocytes were identified by FITC-CD14 (BD Pharmingen) surface staining. Fixed by adding 250 μL of FASC lysing solution (BD Pharmingen) and incubated at room temperature for 15 minutes in the dark, followed by two washes with PBS. To permeabilize the cells, 500 μl of ice-cold absolute methanol was added to each tube and incubated for 15 minutes on ice in the dark, followed by two washes with PBS. Next, PE-phospho-STAT1 (pY701) antibody (BD Pharmingen) was added, followed by 30 minutes incubation on ice in the dark. Again, cells were washed with 2 mL of PBS before resuspension in the 500 μL of PBS. Data were collected with a FACSVerse flow cytometer (BD Biosciences) and analyzed using FACSuite software (BD Biosciences).
Representative histograms (FIG. 2c(1)-FIG. 2c(2)) and MFI (median fluorescence intensity) (FIG. 2d) are shown.
After being gated on the CD14^+, p-STAT-1 levels were determined by flow cytometry with the p-STAT-1 monoclonal antibody. Representative histograms (FIG. 4a(1)-FIG. 4a(2)) and MFI (median fluorescence intensity) (FIG. 4b) are shown.

[11] = system: p-STAT1 in whole blood; test: p-STAT1 in whole blood ex vivo; assay type: cell-based, human
From the text: Representative histograms (FIG. 4f(1)-FIG. 4f(2)) and MFI (median fluorescence intensity) (FIG. 4g) are shown.

Substance	p-STAT1 signaling after recombinant IFNr in presence of sera of immunized rats [1]	antibodies developed after immunization [2]	blocking of hIFNr detection by sera of immunized rats (serum dilution) [3]	affinity of anti-IFNr AutoAbs by ELISA [4]	HLA-DR expression [5]	IL-12p40 expression [6]	IL-12p40 production restored [6]	binding of plasma from healthy controls in Western blot [7]	HLA-DR expression levels restored / up-regulated [8]	IL-12p40 production restored [9]	p-STAT1 signaling restored / up-regulated ([10]; IFNr AutoAbs patients' PBMCs pre-incubated with 10% autologous blood plasma)	phosphorylation of STAT1 ([10]; controls' PBMCs pre-incubated with 20% blood plasma with anti-IFNr AutoAbs from patients)	p-STAT1 signaling ([10]; controls' PBMCs, 20% control blood plasma)	p-STAT1 signaling restored / up-regulated ([11]; IFNr AutoAbs patients' whole blood)	p-STAT1 signal ([11]; controls' whole blood)
CAAKTGKRKRSQM (also: conjugated to ovalbumin; UniProt P01579 146-157, looked up, fragment)	decreased up-regulation of p-STAT1 signaling	developed antibodies to human IFNr, which could cross-react with Aspergillus Noc2	can block human recombinant IFNr												
EE-IFNr: IFNr_1-131 protein with human P121-127 SPAAKTG sequence substituted with murine LPESSLR sequence (SEQ NO: 1) (listed as Mus musculus)				markedly decreased in comparison with wild type (WT) IFNr_1-131	up-regulation of HLA-DR expression	did restore IL-12p40 expression	three of six	no response	four of six	three of six	four of six	could induce the phosphorylation of STAT1	Up-regulation of the p-STAT1 signaling was observed	four of six	up-regulated
